{"source": "patent US20090047704A1", "about": "“Combination of a Histological or Cytological Fixing Agent and One or More Photoactivatable Compounds of the Quinone Family, In Particular Hypericin, Hypocrellin A and Hypocrellin B” (NOVACYT, priority 2005, published 2009)", "format_in_all_cases": "cell-based", "key": {"Human glioblastoma cells": {"system": "Human glioblastoma cells", "assay": "Microspectrofluorometer comparison of hypericin fluorescence in living versus fixed glioblastoma cells", "conditions": "2 micromoles per ml hypericin in Sakomano cytological fixing agent, one hour", "protocol": "Human glioblastoma cells are cultivated in a petri dish. Hypericin is placed in suspension in a solution of Sakomano cytological fixing agent, with a concentration of 2 micromoles per ml, four hours before the experiments. The fixing agent solution comprising hypericin is shielded from light. The cells of the glioblastoma are directly fixed by placing them in the solution of fixing agent prepared based on hypericin for one hour. Comparative tests are carried out using a microspectrofluorometer in order to compare the level of intensity of fluorescence and the quality of the fluorescence spectrum measured in cultures of identical living glioblastoma cells, incubated at the same concentration for one hour in the solution of Sakomano cytological fixing agent containing hypericin, and the fixed cells."}, "tumorous HeLa cells": {"system": "tumorous HeLa cells", "assay": "Microspectrofluorometer measurement of hypericin marking in a fixed mixed cell suspension, tumorous cells", "conditions": "Sakomano fixing agent, 2 μm/ml, one hour, shielded from light", "description": "(§1) Cells from a line of epidermoid malphigian carcinoma of the cervix, of the type HeLa, are cultivated in a petri dish. They are then fixed in a cytological fixing agent of the Sakomano type which already includes normal epithelial cells from a cervical smear in order to verify the affinity of hypericin for the tumorous cells in a cell suspension containing several types of normal cells and tumorous cells. Hypericin is then placed in suspension for one hour in the cell suspension fixed at a concentration of 2 μm/ml and shielded from light. Tests are carried out using a microspectrofluorometer in order to compare the level of intensity of fluorescence and the quality of the fluorescence spectrum measured for the different cells of the suspension, incubated at the same concentration for one hour in the solution of Sakomano cytological fixing agent containing hypericin."}, "[1]": {"system": "normal epithelial cells from a cervical smear", "assay": "Microspectrofluorometer measurement of hypericin marking in a fixed mixed cell suspension, normal cells", "conditions": "Sakomano fixing agent, 2 μm/ml, one hour, shielded from light", "description": "as §1"}, "tumorous cells": {"system": "tumorous cells", "assay": "Incorporation of hypericin by tumorous cells suspended in fixing agent solution", "conditions": "tumorous cells in suspension in fixing agent solution containing micromolar measures of hypericin", "description": "Since the liquid phase of the cell suspension practically no longer contains hypericin, it is possible to carry out a direct analysis of the cells (morphological and/or fluorescence emission analysis) without rinsing the cell suspension. This property therefore allows the cell/tissue preparation and the analysis of the cells to be automated."}}, "note": "Entries after “also recorded” stand apart in the source; their conditions may differ."}
{"smiles": "Cc1cc(O)c2c(=O)c3c(O)cc(O)c4c5c(O)cc(O)c6c(=O)c7c(O)cc(C)c8c1c2c(c34)c(c78)c65", "note": "[hypericin, 1,3,4,6,8,13-hexahydroxy-10,11-dimethylphenanthro(1,10,9,8,opqra)perylene-7,14-dione]", "values": [{"measurement": "fluorescence spectrums, living cells versus fixed cells", "setting": "Human glioblastoma cells", "result": "can be completely superimposed"}, {"measurement": "levels of intensity of the fluorescence, living cells versus fixed cells", "setting": "Human glioblastoma cells", "result": "identical"}, {"measurement": "affinity of hypericin for tumorous cells", "setting": "tumorous HeLa cells", "result": "great affinity"}, {"measurement": "localisation of hypericin in tumorous cells", "setting": "tumorous HeLa cells", "result": "preferential perinuclear localisation; also recorded: very specific preferential perinuclear localisation"}, {"measurement": "affinity of hypericin for normal cells", "setting": "[1]", "result": "very low level of affinity; also recorded: low level of affinity"}, {"measurement": "localisation of hypericin in normal cells", "setting": "[1]", "result": "peripheral localisation in the region of the cell membrane"}, {"measurement": "incorporation of hypericin by the cells", "setting": "tumorous cells", "result": "almost all of the hypericin is incorporated by the cells"}]}
